Results: patent US20080124407A1, “INHIBITING CYP3A4 INDUCTION” (UNIVERSITY OF WASHINGTON, priority 2006, published 2008)
Where two headings read alike, the source gives them in different places.

Columns and labels:
SXR = molecular target: T1, SXR (Homo sapiens, UniProt O75469); assay: Transient transfection luciferase assay, full-length SXR with CYP3A4-luc reporter in HepG2 cells; settings: for inhibitory activity toward SXR function (SFN analogs): 24 hrs
T1 sequence (O75469 1-434): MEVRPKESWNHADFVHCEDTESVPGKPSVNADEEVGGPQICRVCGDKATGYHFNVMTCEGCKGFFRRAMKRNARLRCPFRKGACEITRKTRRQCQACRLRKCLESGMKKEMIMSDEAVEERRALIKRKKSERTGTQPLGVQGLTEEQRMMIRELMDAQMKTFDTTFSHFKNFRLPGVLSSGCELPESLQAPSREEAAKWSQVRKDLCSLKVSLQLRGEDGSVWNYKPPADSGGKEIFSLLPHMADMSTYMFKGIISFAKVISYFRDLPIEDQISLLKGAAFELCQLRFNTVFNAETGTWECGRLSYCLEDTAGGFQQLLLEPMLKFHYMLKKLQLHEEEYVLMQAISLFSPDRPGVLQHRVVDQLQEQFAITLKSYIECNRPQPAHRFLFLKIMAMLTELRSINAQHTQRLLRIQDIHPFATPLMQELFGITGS

UGT1A1 = UGT1A1 gene expression by QRT-PCR; format: cell-based, human
PPARγ = PPARγ (Homo sapiens, UniProt P37231); settings: 10 μM SFN
CYP3A4 [1] = settings: LS180 cells, SFN 24 hrs pre-treatment
human hepatocytes = settings: pretreatment with 50 μM SFN; cited from earlier work
GAL4-SXR = GAL4-SXR (Homo sapiens, UniProt O75469); assay: cell-based
MDR1 (ABCB1) = settings: LS180 cells
NQO1 [2] = settings: human primary hepatocytes, 10 or 25 μM SFN, 48 h
mouse PXR = mouse PXR (Mus musculus, UniProt O54915); settings: 10 μM SFN
NQO1 [3] = settings: LS180 cells, 10 or 25 μM SFN, 48 h
SXR / PBP interaction = SXR / PBP interaction (Homo sapiens, UniProt O75469); settings: 10 μM RIF
rat CYP3A = settings: in vivo; cited from earlier work
rat PXR = rat PXR (Rattus norvegicus, UniProt Q9R1A7); settings: 10 μM SFN
CAR = CAR (Homo sapiens, UniProt Q14994); settings: 10 μM SFN
[4] = molecular target: human SXR ligand binding domain (Homo sapiens, UniProt O75469); assay: biochemical
[5] = test system: NQO1 and Glutamate Cysteine Ligase (both GCLM and GCLC); settings: 10 or 50 μM SFN, 48 hrs
CYP3A4 [6] = settings: for average CYP3A4 mRNA levels relative to the solvent control: 48 hrs
CYP3A4 [7] = settings: hepatocytes
SXR / SRC-1 interaction = SXR / SRC-1 interaction (Homo sapiens, UniProt O75469); settings: 10 μM RIF
[8] = human subjects who ingest SFN in a broccoli soup; cited from earlier work
PPARα = PPARα (Homo sapiens, UniProt Q07869); settings: 10 μM SFN
CYP3A4 [9] = molecular target: CYP3A4 (Homo sapiens, UniProt P08684); settings: concentrations as high as 50 μM; cited from earlier work
VDR = VDR (Homo sapiens, UniProt P11473); settings: 10 μM SFN
VP16-SXR [10] = molecular target: T2, VP16-SXR (human, UniProt O75469 1-434); assay: mammalian two-hybrid in HepG2 cells (GAL4 reporter, VP16-SXR, GAL-TIF2), with rifampicin
T2 construct: also called steroid and xenobiotic receptor; pregnane X receptor
T2 sequence: T1 sequence (O75469 1-434)

VP16-SXR [11] = molecular target: T2, VP16-SXR; assay: mammalian two-hybrid in HepG2 cells (GAL4 reporter, VP16-SXR, GAL-ACTR), with rifampicin

Chain of CAR (Q14994 109-352 limits assumed): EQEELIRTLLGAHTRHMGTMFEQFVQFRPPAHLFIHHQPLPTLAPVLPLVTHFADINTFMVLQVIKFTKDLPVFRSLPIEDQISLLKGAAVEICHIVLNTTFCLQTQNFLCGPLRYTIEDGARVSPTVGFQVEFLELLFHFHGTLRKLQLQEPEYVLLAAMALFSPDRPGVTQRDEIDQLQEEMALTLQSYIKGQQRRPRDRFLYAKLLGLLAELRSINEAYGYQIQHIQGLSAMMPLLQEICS
Chain of rat PXR (Q9R1A7 143-430 limits assumed): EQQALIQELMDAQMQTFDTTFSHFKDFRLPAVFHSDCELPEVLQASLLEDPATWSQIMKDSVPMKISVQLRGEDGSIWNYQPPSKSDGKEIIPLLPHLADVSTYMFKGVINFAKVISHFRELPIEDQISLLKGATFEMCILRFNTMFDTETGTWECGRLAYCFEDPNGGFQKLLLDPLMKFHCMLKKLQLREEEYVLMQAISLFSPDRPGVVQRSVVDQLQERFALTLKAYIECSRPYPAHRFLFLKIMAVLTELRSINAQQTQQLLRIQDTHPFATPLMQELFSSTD
Chain of VDR (P11473 127-423 limits assumed, species assumed): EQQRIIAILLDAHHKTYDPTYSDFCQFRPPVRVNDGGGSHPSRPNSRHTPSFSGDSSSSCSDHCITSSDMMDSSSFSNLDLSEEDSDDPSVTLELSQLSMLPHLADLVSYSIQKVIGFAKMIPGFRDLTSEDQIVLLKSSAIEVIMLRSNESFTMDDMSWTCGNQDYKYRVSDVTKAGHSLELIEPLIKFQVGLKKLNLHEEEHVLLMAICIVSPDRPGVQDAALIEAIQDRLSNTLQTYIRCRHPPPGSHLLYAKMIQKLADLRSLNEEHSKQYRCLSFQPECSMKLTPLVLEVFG
Chain of PPARα (Q07869 239-466 limits assumed, species assumed): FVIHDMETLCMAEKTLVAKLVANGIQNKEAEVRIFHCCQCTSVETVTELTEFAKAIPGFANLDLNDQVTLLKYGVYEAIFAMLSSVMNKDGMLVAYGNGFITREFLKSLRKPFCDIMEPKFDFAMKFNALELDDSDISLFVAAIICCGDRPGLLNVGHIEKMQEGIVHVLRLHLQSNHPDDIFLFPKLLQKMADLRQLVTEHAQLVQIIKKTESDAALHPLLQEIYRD
Chain of PPARγ (P37231 238-503 limits assumed, species assumed): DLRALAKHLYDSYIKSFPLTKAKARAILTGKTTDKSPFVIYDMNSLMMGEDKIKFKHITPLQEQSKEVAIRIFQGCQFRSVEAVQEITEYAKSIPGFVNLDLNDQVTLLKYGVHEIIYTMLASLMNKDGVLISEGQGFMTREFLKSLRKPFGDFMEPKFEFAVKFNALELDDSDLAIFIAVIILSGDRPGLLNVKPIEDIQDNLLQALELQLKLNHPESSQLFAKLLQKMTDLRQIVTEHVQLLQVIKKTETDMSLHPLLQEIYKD
Chain of mouse PXR (O54915 143-430 limits assumed): as the sequence (Q9R1A7 143-430 limits assumed) above, with D36G, V42F, S61R, V68L, H118Y, E121D, R191H, E192K, T272S counted along it
Chain of CYP3A4 (Homo sapiens, UniProt P08684) (P08684 whole entry): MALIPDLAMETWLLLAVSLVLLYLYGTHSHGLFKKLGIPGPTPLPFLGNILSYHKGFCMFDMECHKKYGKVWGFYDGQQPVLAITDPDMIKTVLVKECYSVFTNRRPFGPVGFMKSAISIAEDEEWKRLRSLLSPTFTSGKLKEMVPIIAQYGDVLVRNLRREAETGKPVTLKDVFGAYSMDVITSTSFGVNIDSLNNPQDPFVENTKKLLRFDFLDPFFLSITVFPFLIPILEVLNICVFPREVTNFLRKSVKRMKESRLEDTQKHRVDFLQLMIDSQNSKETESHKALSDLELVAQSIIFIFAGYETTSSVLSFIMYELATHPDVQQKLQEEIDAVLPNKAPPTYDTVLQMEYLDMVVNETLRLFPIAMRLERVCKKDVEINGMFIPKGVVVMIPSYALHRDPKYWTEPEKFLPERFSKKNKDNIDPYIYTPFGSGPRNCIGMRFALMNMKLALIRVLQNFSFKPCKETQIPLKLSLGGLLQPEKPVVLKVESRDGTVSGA

## CS(=O)(=O)CCCN=C=S [Cheirolin]
SXR; 10 μM RIF, low concentration, compared with SFN
  inhibitory effect toward SXR function at low concentration: less potent at low concentration

## C[S+]([O-])CCCN=C=S (stereo not drawn) [Iberin]
SXR; 10 μM RIF, compared with SFN
  inhibitory activity toward SXR function (SFN analogs): little effect on inhibitory potency

## S=C=NCCc1ccccc1 [PEITC, reference compound]
SXR; 10 μM RIF, compared with SFN
  inhibitory activity toward SXR function (SFN analogs): substantial loss of the inhibitory effect

## CC#C[C@]1(O)CC[C@H]2[C@@H]3CCC4=CC(=O)CCC4=C3[C@@H](c3ccc(N(C)C)cc3)C[C@@]21C [RU486, mifepristone, reference compound]
UGT1A1
  effect on UGT1A1 gene expression: slightly induced

## C[S+]([O-])CCCCN=C=S (stereo not drawn) [SFN, 4-methylsulfinylbutyl isothiocyanate]
PPARγ
  activity as activating ligand of PPARγ: nor did it serve as an activating ligand
  inhibition of ligand activation of PPARγ: did not inhibit ligand activation
CYP3A4 [1]
  reduction in RIF- and RU486-mediated induction of CYP3A4: dose-related reduction
Human hepatocytes
  decrease in DNA adduction of aflatoxin B1: > 90%
GAL4-SXR
  IC50: 14 µM
MDR1 (ABCB1)
  inhibition of RIF or RU486 induced expression of MDR1 (ABCB1): inhibited RIF or RU486 induced expression of MDR1
NQO1 [2]
  induction of NQO1: significantly induced
Mouse PXR
  activity as activating ligand of mPXR: nor did it serve as an activating ligand
  inhibition of ligand activation of mPXR: did not inhibit ligand activation
NQO1 [3]
  induction of NQO1: significantly induced
SXR / PBP interaction
  inhibition of RIF induced PBP recruitment to SXR: inhibited RIF induced SRC-1 and PBP recruitment to SXR in a dose dependent manner
Rat CYP3A
  inhibition of rat CYP3A gene expression: did not inhibit rat CYP3A gene expression
SXR
  IC50: ~12 µM
SXR; 10 μM RIF or RU486, dose-dependent
  inhibition of RIF and RU486 induced reporter activities: significantly inhibited
SXR; 25 μM SFN, 10 μM RIF
  inhibition of RIF induced SXR reporter activity: blocked most of the RIF induced SXR reporter activity
SXR; HepG2, RIF or RU486 induced
  concentration as low as which SXR reporter activity was inhibited: 1000 nM
Rat PXR
  activity as activating ligand of rPXR: nor did it serve as an activating ligand
  inhibition of ligand activation of rPXR: did not inhibit ligand activation
CAR
  activity as activating ligand of CAR: nor did it serve as an activating ligand
  inhibition of ligand activation of CAR: did not inhibit ligand activation
[4]
  Ki: 16 µM
UGT1A1
  effect on UGT1A1 gene expression: induced UGT1A1 gene expression
[5]
  mRNA levels of detoxification enzymes including NQO1, GCLM and GCLC: increased mRNA levels
CYP3A4 [6]; 10 μM SFN
  average CYP3A4 mRNA levels relative to the solvent control: 69%
CYP3A4 [6]; 25 μM SFN
  average CYP3A4 mRNA levels relative to the solvent control: 20%
CYP3A4 [6]; 50 μM SFN
  average CYP3A4 mRNA levels relative to the solvent control: 13%
CYP3A4 [6]; single individuals
  CYP3A4 responses in single individuals, lowest, of the solvent control: 2%
CYP3A4 [7]
  effect on basal level of CYP3A4 expression: significantly reduced the basal level
SXR / SRC-1 interaction
  inhibition of RIF induced SRC-1 recruitment to SXR: inhibited RIF induced SRC-1 and PBP recruitment to SXR in a dose dependent manner
[8]
  peak plasma concentration of unconjugated SFN: 4 to 5 µM
PPARα
  activity as activating ligand of PPARα: nor did it serve as an activating ligand
  inhibition of ligand activation of PPARα: did not inhibit ligand activation
CYP3A4 [9]
  direct inhibition of CYP3A4 catalytic activity: not a direct inhibitor
VDR
  activity as activating ligand of VDR: nor did it serve as an activating ligand
  inhibition of ligand activation of VDR: did not inhibit ligand activation

## C[S+]([O-])CCCCC#N (stereo not drawn) [SFN-nitrile, reference compound]
SXR; 10 μM RIF, compared with SFN
  inhibitory activity toward SXR function (SFN analogs): no inhibitory activity

B1: GAL4 DNA-binding domain linked to the receptor interaction domains of transcriptional intermediary factor (GAL-TIF2) (other)
chain: MKLLSSIEQACDICRLKKLKCSKEKPKCAKCLKNNWECRYSPKTKRSPLTRAHLTEVESRLERLEQLFLLIFPREDLDMILKMDSLQDIKALLTGLFVQDNVNKDAVTDRLASVETDMPLTLRQHRISATSSSEESSNKGQRQLTVSQNSPVNMNPPPLSKMGSLDSKDCFGLYGEPSEGTTGQAESSCHPGEQKETNDPNLPPAVSSERADGQSRLHDSKGQTKLLQLLTTKSDQMEPSPLASSLSDTNKDSTGSLPGSGSTHGTSLKEKHKILHRLLQDSSSPVDLAKLTAEATGKDLSQESSSTAPGSEVTIKQEPVSPKKKENALLRYLLDKDDTKDIGLPEITPKLERLDSKTDPASNTKLIAMKTEKEE
VP16-SXR [10]
  binding result: no binding (tested: 10 µM RIF)

B2: GAL4 DNA-binding domain linked to the receptor interaction domains of activator of thyroid and retinoic acid receptor (GAL-ACTR) (other)
chain: MKLLSSIEQACDICRLKKLKCSKEKPKCAKCLKNNWECRYSPKTKRSPLTRAHLTEVESRLERLEQLFLLIFPREDLDMILKMDSLQDIKALLTGLFVQDNVNKDAVTDRLASVETDMPLTLRQHRISATSSSEESSNKGQRQLTVSESSVEGAENQRGPLESKGHKKLLQLLTCSSDDRGHSSLTNSPLDSSCKESSVSVTSPSGVSSSTSGGVSSTSNMHGSLLQEKHRILHKLLQNGNSPAEVAKITAEATGKDTSSITSCGDGNVVKQEQLSPKKKENNALLRYLLDRDDPSDALSKELQPQVEGVDNKMSQCTSSTIPSSSQEKDPKIKTE
VP16-SXR [11]
  binding result: no binding (tested: 10 µM RIF)
